{"source": "patent US20060063810A1", "about": "“Combination treatment for impaired motor function in parkinson's disease” (priority 2003, published 2006)", "key": {"[1]": {"test_system": "parkinsonian patients", "details": "in vivo; cited from earlier work"}, "[2]": {"test_system": "Parkinson Disease patients suffering from severe bradykinesia and motor fluctuations (dyskinesias) induced by L-Dopa therapy", "experiment": "Double-blind, randomized, placebo-controlled clinical study of AMN lead-in followed by add-on CIT (Example 9, Method B)", "format": "in vivo, human", "details": "patients 1, 2 and 4; first four visits; three weeks of treatment with amantadine only", "method": "The study is conducted in a double-blind, randomized, placebo-controlled, parallel-group design, with 2 treatment phases: 3 weeks open label, up -titration amantadine lead-in phase, follow by a 6 weeks add-on citalopram phase; performed in Parkinson Disease patients suffering from severe bradykinesia and motor fluctuations—dyskinesias—induced by L-Dopa therapy.\nAmantadine Hydrochloride: 50 mg arnantadine hydrochloride is administered as a b.i.d. regimen during 1 week. Up titration to 100 mg amantadine hydrochloride administered as a b.i.d. regimen during the second week. Up titration to 150 mg amantadine hydrochloride administered as a b.i.d. regimen during the third week. […]\nThe total score for UPDRS subscale IV is employed to evaluate the severity and characteristics of L-Dopa induced dyskinesias. The total score is calculated as the sum of all scores assigned in the dyskinesia items: 32, 33, 34 and 35; the clinical fluctuations items (calculated as the sum of all scores assigned in items 36, 38 and 39). Items 32, 33, 34 and 35 are recorded according to historical information and item 33 is also modified by office examination. […]\nThe total score of the subscale III of the UPDRS is employed to examine parkinsonian symptoms. Motor functionality is assessed as the total motor score calculated as the sum of all scores assigned in items 18, 19, 20, 21, 22, 23, 24, 25, 26, 27, 28, 29, 30 and 31. […]"}, "[3]": {"test_system": "HD patients", "details": "cited from earlier work"}, "[4]": {"test_system": "Parkinson's disease", "details": "in vivo; cited from earlier work"}, "[5]": {"test_system": "dyskinesia", "details": "normal therapeutic (anti-anxiolytic) levels; cited from earlier work"}, "[6]": {"test_system": "single Parkinson's patient", "details": "citalopram added to the anti-Parkinson's drug regime of a single patient; cited from earlier work"}, "[7]": {"test_system": "patients suffering from different types of tremors", "details": "human, in vivo; cited from earlier work"}}}
{"compound": "CC(C)(C)N1CCC(c2ccccc2)(c2ccccc2)CC1", "note": "[Budipine, 1-Tert-butyl-4,4-diphenylpiperidine]", "values": [{"measurement": "akinesia, rigidity, and tremor", "setting": "[1]", "value": "significantly reduces akinesia, rigidity, and tremor"}, {"measurement": "time to optimal effects after starting treatment", "setting": "[1]", "value": "4-6 weeks"}]}
{"compound": "NC12CC3CC(CC(C3)C1)C2", "note": "[amantadine]", "values": [{"measurement": "UPDRS III scores (motor performance)", "setting": "[2]", "value": "improvement in motor performance"}, {"measurement": "UPDRS IV scores (severity and characteristics of L-Dopa induced dyskinesias, motor fluctuations)", "setting": "[2]", "value": "improvement in motor fluctuations"}, {"measurement": "neuropsychologic and psychiatric assessments", "setting": "[3]; after 6 and 12 months of therapy", "value": "No changes"}, {"measurement": "dyskinesias", "setting": "[3]; eight HD patients, oral amantadine 100 mg tid, unblinded, 1-year period, p<0.01", "value": "significant reduction of dyskinesias"}]}
{"compound": "O=C1CC2(CCCC2)CC(=O)N1CCCCN1CCN(c2ncccn2)CC1", "note": "[buspirone]", "values": [{"measurement": "treatment of Parkinson's disease", "setting": "[4]", "value": "ineffective"}, {"measurement": "effect on dyskinesia", "setting": "[5]", "value": "no different than placebo"}]}
{"compound": "CN(C)CCCC1(c2ccc(F)cc2)OCc2cc(C#N)ccc21", "note": "(stereo not shown) [citalopram]", "values": [{"measurement": "motor symptoms", "setting": "[6]", "value": "worsened their motor symptoms"}]}
{"compound": "O=c1n(CCCN2CCN(c3cccc(Cl)c3)CC2)nc2ccccn12", "note": "[trazodone]", "values": [{"measurement": "tremors", "setting": "[7]", "value": "significantly reduced tremors"}]}
